The text below walks through data of patent publication US5047340A, “LAC+ saccharomyces cerevisiae” (The University of Kentucky Research Foundation, priority 1988, dated 1991).

Molecules are shown by their SMILES. Several values for one entry are separate records, joined by “and”; a condition that tells them apart may be missing. Equal entries are not always repeated.

In assay [1] the test system is lactose transport in K. lactis MS425/pKR1B. The experiment in a line: Lactose transport ([14C]lactose uptake) in K. lactis. In kind it is cell-based. The procedure: (§1) After warming the cells to 23° C. the competing compound was added to a final concentration of 50 mM. Thirty seconds later [^14 C] lactose was added to a final concentration of 1 mM and 100 μl samples were filtered 1 and 2 minutes later. […] For K. lactis the experiment was done twice and for S. cerevisiae it was done three times. Averaged values with or without a standard deviation are shown.
(§2) Finally, the lactose transport in LAC^+ S. cerevisiae was determined to be an energy-dependent process, as it is in K. lactis. To measure energy dependence, cells were pre-incubated for 20 minutes with 1 mM 2,4-dinitrophenol at ambient temperature.
(§3) The kinetics of lactose transport were measured to determine if Lac^+ S. cerevisiae transported measurable quantities of lactose and to determine the time scale over which the apparent initial velocity of transport could be measured. Lactose transport was measured using the following procedure. Saturated cultures of cells were obtained by growth at 30° C. in medium A: 10 g yeast extract, 20 g peptone, 100 ml of 20% lactic acid (titrated to pH 4.5 with solid sodium hydroxide) and 100 ml of 20% glycerol per liter, or medium B: 3.4 g yeast nitrogen base (Difco, without amino acids or ammonium sulfate), 10 g ammonium sulfate, 3 g 20 mg adenine, 20 mg uracil, 20 mg leucine, 20 mg histidine, 20 mg tryptophan, 20 mg methionine and 20 mg lysine per liter. Strain MS425/pKR1B of K. lactis was grown on medium A containing 10 μg G418/ml, while S. cerevisiae strains L1582/pKR1B, and YNN27/pKR1B were grown on the same medium containing 200 μg […] Strains L1582 or YNN27 transformed with either plasmid A, B, or C (autonomous or integrated) were grown on medium B.
(§4) This procedure is a modification of the procedure described by Serrano, R. (1977) European J. of Biochem. 80:97-10^2. To prepare cells for transport measurements, a saturated culture was diluted into fresh medium and grown from […]. Cells were harvested by filtration (45 mm dia, 0.45 μm Millipore type HA), washed four times with 10 ml of ice cold distilled water, and then resuspended in 100 mM tartaric acid (titrated to pH 4.2 with sodium hydroxide) at 60 to 100 A600 /ml. At this point cells could be stored at 4° C. for up to 24 hours without loss of transport activity.
(§5) To measure lactose transport, a sample of cells, 0.3 to 1.0 ml, was warmed to 23° C. for 2 min, lactose was added to the desired concentrations and at zero time 0.luCi of D-Glucose-[^14C ]lactose (CFA 278; 58 mCi/mM; Amersham Corp., Lexington, Mass.) was added per 0.3 ml of cells. At the indicated times 100 μl samples were filtered on 25 mm diameter Nuclepore filters (0.4μm pore size; Nuclepore Corp., Pleasanton, Cal.). The filter was washed twice with 5 ml of ice cold distilled water, dried and counted in 4 ml of a toluene-based cocktail containing 250 ml of triton X-100 and 6.5 g p-terphenyl per liter using a liquid scintillation counter. The specific activity, cpm/pmole of lactose, of each reaction was determined by counting a 10 μl sample. Data are expressed as pmoles of intracellular lactose per A600. Background transport was measured using cells that were heated for 3 min at 90° C. Typical background was 25 to 30 cpm.
The lactose transport in Lac^+ S. cerevisiae was determined to be an energy-dependent process, as it is in K. lactis. To measure energy dependence, cells were pre-incubated with 1 mM […] for 20 minutes at ambient temperature and then the uptake of 1 mM ^14 C-lactose was measured. Lactose transport was inhibited 91% both in the Lac^+ strain of S. cerevisiae , L1582/pKR1B-LAC4-1, and in the K. lactis strain MS425/pKR1B.

For assay [2], the system named is lactose transport in S. cerevisiae L1582/pKR1B-LAC4-1. As to the kind of experiment: Lactose transport ([14C]lactose uptake) in Lac+ S. cerevisiae. In kind it is cell-based. Conditions: for inhibition of lactose transport (stereospecificity, in words): summary of Table 1 (L1582/pKR1B-LAC4-1 and K. lactis). The procedure:
The rate of lactose transport as a function of substrate concentration is shown for two experiments using Lac^+ L1582/pKR1B-LAC4-1 (.smallcircle.--.smallcircle.) and Lac^+ L1582/pKR1B-LAC4-Δ1087(.quadrature.--.quadrature.). For each concentration of lactose, the rate of transport represented the average of samples taken at 30, 60, and 90 seconds.
as §1, §2, §3, §4, §5
The lactose transport in Lac^+ S. cerevisiae was determined to be an energy-dependent process, as it is in K. lactis. To measure energy dependence, cells were pre-incubated with 1 mM […] for 20 minutes at ambient temperature and then the uptake of 1 mM ^14 C-lactose was measured. […]

Setting [3] is: pre-incubated 20 minutes with 1 mM at ambient temperature.
The mark [4] stands for this setting: Kluyveromyces lactis, competing compound 50 mM, [14C]lactose 1 mM, 23° C., samples at 1 and 2 minutes, average of two experiments.
Setting [5] is: Saccharomyces cerevisiae, competing compound 50 mM, [14C]lactose 1 mM, 23° C., samples at 1 and 2 minutes, average of three experiments with standard deviation.

`O=[N+]([O-])c1ccc(O)c([N+](=O)[O-])c1` [2,4-dinitrophenol]: the inhibition at 1000 µM came to 91% in assay [1] (Kluyveromyces lactis, read-out: Lactose transport inhibited (energy dependence), K. lactis MS425/pKR1B) and 91% in assay [2] (Saccharomyces cerevisiae, read-out: Lactose transport inhibited (energy dependence), S. cerevisiae L1582/pKR1B-LAC4-1). Besides, in assay [1] (setting [3]), the “Lactose transport inhibition in words (energy dependence), K. lactis MS425/pKR1B” value is given as “inhibited almost completely”. In assay [2] (setting [3]), the “Lactose transport inhibition in words (energy dependence), S. cerevisiae L1582/pKR1B-LAC4-1” value is reported as “inhibited almost completely”.

Turning to `O=C[C@@H](O)[C@H](O[C@@H]1O[C@H](CO)[C@H](O)[C@H](O)[C@H]1O)[C@H](O)CO` [3-0-β-D-galactosyl-D-arabinose], the “% Inhibition of Lactose Transport, K. lactis MS425/pKR1B” value in assay [1] (competing compound 50 mM, [14C]lactose 1 mM, 23° C., samples at 1 and 2 minutes, average of two experiments) amounted to 93%. Besides, the “% Inhibition of Lactose Transport, S. cerevisiae L1582/pKR1B-LAC4-1” value in assay [2] (competing compound 50 mM, [14C]lactose 1 mM, 23° C., samples at 1 and 2 minutes, average of three experiments with standard deviation) is reported as 90 ± 6%. In addition, in assay [2], the “inhibition of lactose transport (stereospecificity, in words)” value (shortened to “inhibition … (stereospecificity, in words)”) is recorded as “strongest inhibition”.

For `O=[N+]([O-])c1ccc(O[C@H]2O[C@H](CO)[C@H](O)[C@H](O)[C@H]2O)cc1` [4-nitrophenyl-α-D-galactoside], the “inhibition … (stereospecificity, in words)” value in assay [2] was “inhibited only weakly”.

For the compound `OC[C@H]1O[C@H](OC[C@H]2OC(O)[C@H](O)[C@@H](O)[C@@H]2O)[C@H](O)[C@@H](O)[C@H]1O` (stereo partly drawn) [6-0-α-D-galactosyl-D-glucose], the figures for the inhibition at 50000 µM in assay [1] (setting [4]) and in assay [2] (setting [5]) were 10% and 10.7 ± 8%, respectively. Also, in assay [2], the “inhibition … (stereospecificity, in words)” value is “inhibited only weakly”.

As to `O=C[C@H](O)[C@@H](O)[C@@H](O)[C@H](O)CO` [D-galactose], the inhibition at 50000 µM was determined as 26% in assay [1] (setting [4]) and 24.3 ± 7.2% in assay [2] (setting [5]). Also, the “inhibition … (stereospecificity, in words)” value in assay [2] is “only moderate inhibition”.

With `OC[C@H]1O[C@@H](S[C@@H]2O[C@H](CO)[C@H](O)[C@H](O)[C@H]2O)[C@H](O)[C@@H](O)[C@H]1O` [D-galactosyl-1-thio-β-D-galactoside], the inhibition at 50000 µM in assay [1] (setting [4]) amounted to 28%; in assay [2] (setting [5]), 4.9 ± 4%. Besides, in assay [2], the “inhibition … (stereospecificity, in words)” value is listed as “only moderate inhibition”.

With `OC[C@H]1O[C@@H](O[C@H]2[C@H](O)[C@@H](O)C(O)O[C@@H]2CO)[C@H](O)[C@@H](O)[C@H]1O` (stereo partly drawn) [lactose, 4-0-beta-D-galactosyl-D-glucose], the Michaelis constant (Km) in assay [1] (K. lactis strain MS425, read-out: apparent Km for lactose transport, K. lactis strain MS425) was 670 µM; in assay [2] (two experiments of FIG. 4: Lac+ L1582/pKR1B-LAC4-1 and Lac+ L1582/pKR1B-LAC4-Δ1087, rates averaged from 30, 60 and 90 seconds, read-out: apparent Km for lactose transport, Lac+ S. cerevisiae), 970 µM and 1090 µM.

For orientation: Km means the substrate concentration at which the rate is half of its maximum.
